# Data reported in article PMC13254586, “C-terminal dimerization motifs control asynchronous chain elongation during modular polyketide biosynthesis [drawing 1]” (The Journal of Biological Chemistry, 2026).
# Experiments:
# M1-DD = target: T1, M1-DD (Amycolatopsis mediterranei, UniProt O54666); assay: cryo-EM structure; type: binding; conditions: covalent on CP Ser1538; Ppant occupies KS active site tunnel; elongation mode; 3.22 Å; Fab 1B2 bound
# T1 construct: gene rifA; RIFS module 1 (KS-AT-DH0-KR-CP) with N- and C-terminal docking domains of the erythromycin assembly line, C-terminal His6; holo form, E. coli BAP1; homodimer
# LM-M1-DD = target: T2, LM-M1-DD (Amycolatopsis mediterranei, UniProt O54666); assay: LC-MS/MS-MRM of hydrolysed diketide, single turnover; type: biochemical; conditions: ATP/Mg2+, racemic MeMal-CoA, pH 7.3, room temperature
# T2 construct: gene rifA; RIFS loading module plus module 1 bimodule (A-CP, KS-AT-DH0-KR-CP) with C-terminal docking domain (DD) of the erythromycin synthase; holo form, E. coli BAP1; Ni-NTA purified; homodimer
# LM-M1-TEII° = target: T3, LM-M1-TEII° (Amycolatopsis mediterranei, UniProt O54666); assay: as above; type: biochemical; conditions: ATP/Mg2+, racemic MeMal-CoA, NADPH; pH 7.3; room temperature
# T3 construct: gene rifA; holo form, E. coli BAP1; homodimer
# T2 sequence (O54666 1-2179 limits assumed): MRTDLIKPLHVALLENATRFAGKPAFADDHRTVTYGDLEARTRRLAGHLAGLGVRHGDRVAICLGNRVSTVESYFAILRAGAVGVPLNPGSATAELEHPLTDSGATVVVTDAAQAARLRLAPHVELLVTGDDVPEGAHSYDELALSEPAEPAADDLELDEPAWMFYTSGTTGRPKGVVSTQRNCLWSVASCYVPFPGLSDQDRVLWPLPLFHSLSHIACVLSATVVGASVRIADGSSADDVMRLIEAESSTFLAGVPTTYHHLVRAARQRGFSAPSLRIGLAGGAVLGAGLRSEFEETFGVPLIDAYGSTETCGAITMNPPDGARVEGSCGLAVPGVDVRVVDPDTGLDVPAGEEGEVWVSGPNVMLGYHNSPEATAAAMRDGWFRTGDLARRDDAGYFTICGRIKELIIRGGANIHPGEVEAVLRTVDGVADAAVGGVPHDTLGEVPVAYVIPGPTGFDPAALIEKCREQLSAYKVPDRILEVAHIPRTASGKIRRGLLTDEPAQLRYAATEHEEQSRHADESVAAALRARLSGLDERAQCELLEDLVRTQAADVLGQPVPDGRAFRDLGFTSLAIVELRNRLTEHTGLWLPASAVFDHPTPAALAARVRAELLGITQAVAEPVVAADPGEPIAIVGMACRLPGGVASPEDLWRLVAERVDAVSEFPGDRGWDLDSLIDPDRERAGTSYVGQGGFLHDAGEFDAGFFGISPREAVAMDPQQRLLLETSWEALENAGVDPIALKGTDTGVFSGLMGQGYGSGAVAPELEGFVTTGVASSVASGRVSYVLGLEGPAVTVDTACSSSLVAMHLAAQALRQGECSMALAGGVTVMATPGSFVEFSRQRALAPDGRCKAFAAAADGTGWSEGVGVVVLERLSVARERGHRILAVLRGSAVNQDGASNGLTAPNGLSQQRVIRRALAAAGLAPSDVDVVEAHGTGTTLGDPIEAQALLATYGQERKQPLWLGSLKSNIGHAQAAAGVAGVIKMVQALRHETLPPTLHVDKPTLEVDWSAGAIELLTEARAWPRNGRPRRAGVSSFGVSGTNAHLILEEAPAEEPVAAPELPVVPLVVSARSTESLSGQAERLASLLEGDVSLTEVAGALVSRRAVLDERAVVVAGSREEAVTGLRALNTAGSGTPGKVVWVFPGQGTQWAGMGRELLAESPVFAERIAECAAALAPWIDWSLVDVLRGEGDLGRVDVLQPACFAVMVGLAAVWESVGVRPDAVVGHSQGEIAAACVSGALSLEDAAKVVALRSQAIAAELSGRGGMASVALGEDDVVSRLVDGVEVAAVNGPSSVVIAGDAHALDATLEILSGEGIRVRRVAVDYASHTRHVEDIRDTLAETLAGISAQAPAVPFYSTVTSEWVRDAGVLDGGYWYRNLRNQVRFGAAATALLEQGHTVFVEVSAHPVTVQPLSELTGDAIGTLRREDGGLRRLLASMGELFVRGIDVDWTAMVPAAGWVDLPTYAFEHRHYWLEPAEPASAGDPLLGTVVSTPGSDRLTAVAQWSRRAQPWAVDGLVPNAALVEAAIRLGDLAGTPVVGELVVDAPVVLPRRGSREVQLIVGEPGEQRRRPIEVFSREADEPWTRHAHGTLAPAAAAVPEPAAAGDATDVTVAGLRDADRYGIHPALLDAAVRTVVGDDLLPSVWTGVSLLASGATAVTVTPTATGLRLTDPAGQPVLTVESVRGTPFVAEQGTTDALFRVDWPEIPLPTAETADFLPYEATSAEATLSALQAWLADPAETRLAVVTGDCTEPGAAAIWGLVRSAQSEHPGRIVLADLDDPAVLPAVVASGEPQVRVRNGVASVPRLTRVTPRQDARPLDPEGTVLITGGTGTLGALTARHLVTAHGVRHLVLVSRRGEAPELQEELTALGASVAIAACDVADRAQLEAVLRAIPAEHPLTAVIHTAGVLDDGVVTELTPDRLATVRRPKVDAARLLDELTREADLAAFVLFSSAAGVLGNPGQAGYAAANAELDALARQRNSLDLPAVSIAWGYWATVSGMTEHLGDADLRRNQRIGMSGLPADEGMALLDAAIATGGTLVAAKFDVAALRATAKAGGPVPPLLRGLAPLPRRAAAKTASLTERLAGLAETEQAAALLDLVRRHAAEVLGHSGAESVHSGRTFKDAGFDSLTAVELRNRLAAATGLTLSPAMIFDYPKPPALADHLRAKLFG
# T1 sequence (O54666 631-2179): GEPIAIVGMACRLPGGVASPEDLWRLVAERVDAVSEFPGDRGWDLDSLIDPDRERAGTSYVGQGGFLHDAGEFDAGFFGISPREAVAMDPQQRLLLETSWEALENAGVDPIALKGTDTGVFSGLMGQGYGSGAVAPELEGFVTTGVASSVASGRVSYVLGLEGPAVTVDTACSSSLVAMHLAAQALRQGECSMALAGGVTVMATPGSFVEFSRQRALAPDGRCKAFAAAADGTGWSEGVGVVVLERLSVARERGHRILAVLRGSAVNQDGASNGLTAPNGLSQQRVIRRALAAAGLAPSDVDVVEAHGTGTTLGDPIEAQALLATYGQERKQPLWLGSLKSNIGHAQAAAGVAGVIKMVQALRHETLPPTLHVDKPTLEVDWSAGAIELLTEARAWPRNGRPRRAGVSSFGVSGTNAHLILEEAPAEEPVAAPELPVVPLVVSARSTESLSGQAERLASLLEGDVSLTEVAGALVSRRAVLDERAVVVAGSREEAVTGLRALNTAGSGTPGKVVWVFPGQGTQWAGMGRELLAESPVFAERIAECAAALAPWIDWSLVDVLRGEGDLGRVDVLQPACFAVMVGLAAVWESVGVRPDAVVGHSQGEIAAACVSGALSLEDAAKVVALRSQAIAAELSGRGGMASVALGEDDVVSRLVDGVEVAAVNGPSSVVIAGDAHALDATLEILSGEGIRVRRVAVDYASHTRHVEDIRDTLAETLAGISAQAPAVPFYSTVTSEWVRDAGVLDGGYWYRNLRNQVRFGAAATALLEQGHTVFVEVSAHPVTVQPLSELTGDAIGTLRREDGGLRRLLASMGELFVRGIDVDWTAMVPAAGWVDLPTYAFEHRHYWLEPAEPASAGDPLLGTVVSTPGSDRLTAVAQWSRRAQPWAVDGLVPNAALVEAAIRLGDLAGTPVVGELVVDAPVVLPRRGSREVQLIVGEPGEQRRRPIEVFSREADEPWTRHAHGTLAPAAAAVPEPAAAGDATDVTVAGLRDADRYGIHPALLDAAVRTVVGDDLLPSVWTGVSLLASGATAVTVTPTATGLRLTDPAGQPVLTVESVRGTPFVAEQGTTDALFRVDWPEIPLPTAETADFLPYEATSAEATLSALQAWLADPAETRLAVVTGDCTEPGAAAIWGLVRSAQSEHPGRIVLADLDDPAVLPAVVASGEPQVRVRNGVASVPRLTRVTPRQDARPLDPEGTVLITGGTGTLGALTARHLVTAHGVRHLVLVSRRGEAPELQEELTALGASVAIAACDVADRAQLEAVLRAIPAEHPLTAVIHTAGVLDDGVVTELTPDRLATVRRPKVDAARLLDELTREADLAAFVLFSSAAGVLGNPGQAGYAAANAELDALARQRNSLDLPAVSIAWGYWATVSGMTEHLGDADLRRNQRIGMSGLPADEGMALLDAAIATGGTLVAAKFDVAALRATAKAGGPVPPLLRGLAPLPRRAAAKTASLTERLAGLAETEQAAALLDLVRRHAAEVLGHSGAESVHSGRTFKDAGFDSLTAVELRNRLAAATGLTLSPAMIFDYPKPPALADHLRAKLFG
smiles,measurement,setting,value
CC(C)(COP(=O)(O)O)[C@@H](O)C(=O)NCCC(=O)NCCS [4′-phosphopantetheine],cryo-EM structure,M1-DD,within the KS active site tunnel occupied by the Ppant cofactor
NC(=O)C1=CN([C@@H]2O[C@H](COP(=O)(O)OP(=O)(O)OC[C@H]3O[C@@H](n4cnc5c(N)ncnc54)[C@H](OP(=O)(O)O)[C@@H]3O)[C@@H](O)[C@H]2O)C=CC1 [NADPH],"LC-MS/MS-MRM of hydrolysed diketide, single turnover","LM-M1-DD; 1 mM NADPH present or absent, benzoate",expected time- and NADPH-dependent accumulation of hydrolyzed keto-d2
O=C(O)c1ccccc1 [benzoate],"LC-MS/MS-MRM of hydrolysed diketide, single turnover",LM-M1-DD; NADPH,both LM-M1-DD and LM-M1-TEII° were catalytically active
same,"LC-MS/MS-MRM of hydrolysed diketide, single turnover",LM-M1-TEII°,both LM-M1-DD and LM-M1-TEII° were catalytically active
